From ChEMBL document CHEMBL1201862, “PubChem BioAssay data set” (2004)
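Exposure lasted 48 hours, with cells grown in 96-well plates and compounds tested at five concentrations. Here, GI50 denotes the concentration required for 50% inhibition of growth.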 The source made the active and inactive calls. No stated cut-off is given here; in the data, active = GI50 up to about 1.1 µM and inactive = higher.

What was measured:
Assay in all cases: inhibition of tumour cell growth, NCI panel, 48 h
[1] = system: UACC-257
[2] = system: ACHN
[3] = system: NCI/ADR-RES
[4] = system: SF-295
[5] = system: SW-620
[6] = system: SK-MEL-2
[7] = system: CCRF-CEM
[8] = system: EKVX
[9] = system: CAKI-1
[10] = system: KM12
[11] = system: HCT-116
[12] = system: MDA-N
[13] = system: UO-31
[14] = system: Hs-578T
[15] = system: SK-MEL-28
[16] = system: HOP-92
[17] = system: HCC 2998
[18] = system: OVCAR-4
[19] = system: NCI-H460
[20] = system: MDA-MB-231
[21] = system: UACC-62
[22] = system: PC-3
[23] = system: HL-60
[24] = system: NCI-H226
[25] = system: SF-539
[26] = system: M14
[27] = system: OVCAR-3
[28] = system: U-251
[29] = system: SF-268
[30] = system: DU-145
[31] = system: HOP-62
[32] = system: SR
[33] = system: HT-29
[34] = system: SNB-19
[35] = system: RPMI-8226
[36] = system: HCT-15
[37] = system: LOX IMVI
[38] = system: IGROV-1
[39] = system: OVCAR-5
[40] = system: COLO 205
[41] = system: K562
[42] = system: OVCAR-8
[43] = system: MOLT-4
[44] = system: MCF7
[45] = system: Malme-3M
[46] = system: NCI-H23
[47] = system: BT-549
[48] = system: MDA-MB-435
[49] = system: TK-10
[50] = system: SK-OV-3
[51] = system: NCI-H522
[52] = system: A549
[53] = system: SNB-75
[54] = system: 786-0
[55] = system: SN12C
[56] = system: A498
[57] = system: SK-MEL-5
[58] = system: RXF 393
[59] = system: T47D

With `O=CN1CCN(c2ccc3ccc(O)nc3n2)CC1` the GI50 [1] was > 100 µM (inactive), the GI50 [2] was > 100 µM (inactive) and the GI50 [3] was > 100 µM (inactive). The GI50 [4] was > 100 µM (inactive), the GI50 [5] was > 100 µM (inactive) and the GI50 [6] was > 100 µM (inactive). The GI50 [7] was > 100 µM (inactive), the GI50 [8] was > 100 µM (inactive) and the GI50 [9] was > 100 µM (inactive). For the same molecule, the GI50 [10] was > 100 µM (inactive), the GI50 [11] was > 100 µM (inactive) and the GI50 [12] was > 100 µM (inactive). The GI50 [13] was > 100 µM (inactive), the GI50 [14] was > 100 µM (inactive) and the GI50 [15] was > 100 µM (inactive). For the same molecule, the GI50 [16] was > 100 µM (inactive), the GI50 [17] was > 100 µM (inactive) and the GI50 [18] was > 100 µM (inactive). For the same molecule, the GI50 [19] was > 100 µM (inactive), the GI50 [20] was > 100 µM (inactive) and the GI50 [21] was > 100 µM (inactive). The GI50 [22] was > 100 µM (inactive), the GI50 [23] was > 100 µM (inactive) and the GI50 [24] was > 100 µM (inactive). For the same molecule, the GI50 [25] was > 100 µM (inactive), the GI50 [26] was > 100 µM (inactive) and the GI50 [27] was > 100 µM (inactive). For the same molecule, the GI50 [28] was > 100 µM (inactive), the GI50 [29] was 69.8 µM (inactive) and the GI50 [30] was > 100 µM (inactive). The GI50 [31] was > 100 µM (inactive), the GI50 [32] was > 100 µM (inactive) and the GI50 [33] was > 100 µM (inactive). The GI50 [34] was > 100 µM (inactive), the GI50 [35] was > 100 µM (inactive) and the GI50 [36] was greater than 100 µM. The GI50 [37] was > 100 µM (inactive), the GI50 [38] was > 100 µM (inactive) and the GI50 [39] was > 100 µM (inactive). For the same molecule, the GI50 [40] was > 100 µM (inactive), the GI50 [41] was > 100 µM (inactive) and the GI50 [42] was > 100 µM (inactive). For the same molecule, the GI50 [43] was > 100 µM (inactive), the GI50 [44] was > 100 µM (inactive) and the GI50 [45] was > 100 µM (inactive). For the same molecule, the GI50 [46] was > 100 µM (inactive), the GI50 [47] was > 100 µM (inactive) and the GI50 [48] was > 100 µM (inactive). For the same molecule, the GI50 [49] was > 100 µM (inactive), the GI50 [50] was > 100 µM (inactive) and the GI50 [51] was 51.8 µM (inactive). The GI50 [52] was > 100 µM (inactive), the GI50 [53] was > 100 µM (inactive) and the GI50 [54] was > 100 µM (inactive). For the same molecule, the GI50 [55] was > 100 µM (inactive).
With `CC1CC(NN)=Nc2ccccc2N1` (configuration not stated) the GI50 [1] was > 100 µM (inactive), the GI50 [2] was > 100 µM (inactive) and the GI50 [3] was > 100 µM (inactive). For the same molecule, the GI50 [4] was > 100 µM (inactive), the GI50 [5] was > 100 µM (inactive) and the GI50 [6] was > 100 µM (inactive). The GI50 [7] was 40.3 µM (inactive), the GI50 [8] was > 100 µM (inactive) and the GI50 [9] was > 100 µM (inactive). The GI50 [10] was > 100 µM (inactive), the GI50 [11] was > 100 µM (inactive) and the GI50 [12] was > 100 µM (inactive). The GI50 [13] was > 100 µM (inactive), the GI50 [14] was > 100 µM (inactive) and the GI50 [15] was > 100 µM (inactive). For the same molecule, the GI50 [18] was > 100 µM (inactive), the GI50 [56] was > 100 µM (inactive) and the GI50 [19] was > 100 µM (inactive). For the same molecule, the GI50 [20] was > 100 µM (inactive), the GI50 [21] was > 100 µM (inactive) and the GI50 [22] was > 100 µM (inactive). The GI50 [23] was 60.3 µM (inactive), the GI50 [24] was > 100 µM (inactive) and the GI50 [26] was > 100 µM (inactive). For the same molecule, the GI50 [27] was > 100 µM (inactive), the GI50 [28] was > 100 µM (inactive) and the GI50 [29] was > 100 µM (inactive). The GI50 [30] was > 100 µM (inactive), the GI50 [31] was > 100 µM (inactive) and the GI50 [33] was > 100 µM (inactive). The GI50 [34] was > 100 µM (inactive), the GI50 [35] was 65.9 µM (inactive) and the GI50 [36] was greater than 100 µM. For the same molecule, the GI50 [38] was > 100 µM (inactive), the GI50 [39] was > 100 µM (inactive) and the GI50 [40] was > 100 µM (inactive). For the same molecule, the GI50 [41] was 49.2 µM (inactive), the GI50 [42] was > 100 µM (inactive) and the GI50 [43] was > 100 µM (inactive). The GI50 [45] was 16.6 µM (inactive), the GI50 [46] was > 100 µM (inactive) and the GI50 [47] was > 100 µM (inactive). The GI50 [48] was > 100 µM (inactive), the GI50 [49] was > 100 µM (inactive) and the GI50 [50] was > 100 µM (inactive). For the same molecule, the GI50 [51] was > 100 µM (inactive), the GI50 [52] was > 100 µM (inactive) and the GI50 [57] was > 100 µM (inactive). For the same molecule, the GI50 [54] was > 100 µM (inactive) and the GI50 [55] was > 100 µM (inactive).
`CN(C)CCn1c(=O)c2ccc(NCCCN(C)CCCNc3ccc4c(=O)n(CCN(C)C)c(=O)n5c6ccccc6c(=O)c3c45)c3c(=O)c4ccccc4n(c1=O)c23` was tested, and the GI50 [1] was 0.208 µM (active), the GI50 [2] was < 0.01 µM (active) and the GI50 [3] was 0.0339 µM (active). For the same molecule, the GI50 [4] was < 0.01 µM (active), the GI50 [5] was < 0.01 µM (active) and the GI50 [6] was 0.107 µM (active). For the same molecule, the GI50 [7] was < 0.01 µM (active), the GI50 [8] was 0.051 µM (active) and the GI50 [9] was 0.0172 µM (active). For the same molecule, the GI50 [10] was < 0.01 µM (active), the GI50 [11] was < 0.01 µM (active) and the GI50 [13] was < 0.0285 µM (active). The GI50 [14] was 0.131 µM (active), the GI50 [15] was 0.165 µM (active) and the GI50 [17] was < 0.0115 µM (active). For the same molecule, the GI50 [18] was < 0.01 µM (active), the GI50 [56] was 0.0571 µM (active) and the GI50 [19] was < 0.01 µM (active). For the same molecule, the GI50 [20] was < 0.0405 µM (active), the GI50 [21] was 0.151 µM (active) and the GI50 [22] was < 0.01 µM (active). The GI50 [23] was < 0.01 µM (active), the GI50 [24] was < 0.01 µM (active) and the GI50 [25] was < 0.01 µM (active). For the same molecule, the GI50 [26] was 0.167 µM (active), the GI50 [27] was 0.0778 µM (active) and the GI50 [28] was < 0.01 µM (active). The GI50 [29] was 0.258 µM (active), the GI50 [30] was < 0.01 µM (active) and the GI50 [31] was < 0.0161 µM (active). The GI50 [32] was < 0.01 µM (active), the GI50 [33] was < 0.01 µM (active) and the GI50 [34] was < 0.01 µM (active). The GI50 [35] was < 0.01 µM (active), the GI50 [36] was less than 0.01 µM and the GI50 [37] was < 0.01 µM (active). For the same molecule, the GI50 [38] was < 0.01 µM (active), the GI50 [39] was 0.145 µM (active) and the GI50 [40] was < 0.01 µM (active). The GI50 [41] was < 0.01 µM (active), the GI50 [42] was < 0.01 µM (active) and the GI50 [43] was < 0.01 µM (active). For the same molecule, the GI50 [44] was < 0.01 µM (active), the GI50 [45] was 0.361 µM (active) and the GI50 [46] was < 0.01 µM (active). The GI50 [47] was 0.117 µM (active), the GI50 [48] was < 0.0151 µM (active) and the GI50 [49] was 0.0593 µM (active). The GI50 [50] was 0.101 µM (active), the GI50 [51] was < 0.01 µM (active) and the GI50 [52] was < 0.01 µM (active). The GI50 [53] was < 0.0117 µM (active), the GI50 [58] was < 0.0149 µM (active) and the GI50 [57] was < 0.0106 µM (active). For the same molecule, the GI50 [54] was < 0.01 µM (active), the GI50 [59] was 0.54 µM (active) and the GI50 [55] was < 0.01 µM (active).
